Measurements taken from patent publication US4605744A, “Imidazole derivatives” (Hoffmann-La Roche Inc., priority 1985, dated 1986).
Counter-ions that a name gives are not always drawn. Like-named read-outs stand apart in the source and are kept apart here.

Columns and labels:
Assay in all cases: In vitro antibacterial activity (MIC)
Assay type in all cases: cell-based
S. marcescens S1 = conditions: Serratia marcescens, S1, S. marcescens S1; read-out: MIC
Outline: (§1)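 Read-out: visible growth, checked with a viewer after overnight incubation at 37° C. Bacteria, from a 10^-2 dilution of an overnight culture, were exposed to drug at 128 to 0.008 μg/ml in Mueller-Hinton broth.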

P. aeruginosa B = conditions: Pseudomonas aeruginosa, read-out: MIC
Outline: as §1

S. pyogenes 503-782 = conditions: Streptococcus pyogenes, 503782; S. pyogenes 503-782; read-out: MIC
Outline: as §1

S. faecalis C1 = conditions: Enterococcus faecalis; S. faecalis C1; read-out: MIC
Outline: as §1

P. aeruginosa 8710 = conditions: Pseudomonas aeruginosa; P. aeruginosa 8710; read-out: MIC
Outline: as §1

E. coli 503-455 = conditions: Escherichia coli, 503455, E. coli 503-455; read-out: MIC
Outline: as §1

E. coli 387-1 = test system: E. coli 387-1
Outline: as §1

E. coli 4 = test system: E. coli 4
Outline: as §1

S. typhi P58A = conditions: Salmonella enterica, TYPHI
Outline: as §1

C. freundii CDC6 = conditions: Citrobacter freundii
Outline: as §1

K. pneumoniae 35 = conditions: Klebsiella pneumoniae; K. pneumoniae 35; read-out: MIC
Outline: as §1

E. cloacae 6951 = conditions: Enterobacter cloacae, 6951, E. cloacae 6951; read-out: MIC
Outline: as §1

E. coli 5152 = conditions: Escherichia coli, 5152, E. coli 5152; read-out: MIC
Outline: as §1

E. coli 48 = test system: E. coli 48
Outline: as §1

P. aeruginosa 503-56 = test system: P. aeruginosa 503-56
Outline: as §1

K. pneumoniae 503-964 = conditions: Klebsiella pneumoniae, 503964; K. pneumoniae 503-964; read-out: MIC
Outline: as §1

P. aeruginosa Stone 130 = conditions: Pseudomonas aeruginosa, STONE130, read-out: MIC
Outline: as §1

C. diversus CDC 1663-72 = conditions: Citrobacter koseri, CDC166372
Outline: as §1

E. coli R-563 = conditions: Escherichia coli
Outline: as §1

S. pneumoniae 6301 = conditions: Streptococcus pneumoniae, 6301, S. pneumoniae 6301; read-out: MIC
Outline: as §1

S. pneumoniae 6302 = conditions: Streptococcus pneumoniae, 6302, S. pneumoniae 6302; read-out: MIC
Outline: as §1

P. aeruginosa 5700 = conditions: Pseudomonas aeruginosa, 5700, P. aeruginosa 5700; read-out: MIC
Outline: as §1

[1] = Escherichia coli, 3871, E. coli 387-1, read-out: MIC
[2] = Escherichia coli, 4, E. coli 4, read-out: MIC
[3] = CDC6, C. freundii CDC6, read-out: MIC
[4] = Escherichia coli, 48, E. coli 48, read-out: MIC
[5] = Pseudomonas aeruginosa, 50356, P. aeruginosa 503-56, read-out: MIC
[6] = C. diversus CDC 1663-72, read-out: MIC
[7] = R563, E. coli R-563, read-out: MIC

SMILES	MIC (S. marcescens S1) [µg/mL]	MIC (P. aeruginosa B) [µg/mL]	MIC (S. pyogenes 503-782) [µg/mL]	MIC (S. faecalis C1) [µg/mL]	MIC (P. aeruginosa 8710) [µg/mL]	MIC (E. coli 503-455) [µg/mL]	MIC (E. coli 387-1; [1]) [µg/mL]	MIC (E. coli 4; [2]) [µg/mL]	MIC (S. typhi P58A) [µg/mL]	MIC (C. freundii CDC6; [3]) [µg/mL]	MIC (K. pneumoniae 35) [µg/mL]	MIC (E. cloacae 6951) [µg/mL]	MIC (E. coli 5152) [µg/mL]	MIC (E. coli 48; [4]) [µg/mL]	MIC (P. aeruginosa 503-56; [5]) [µg/mL]	MIC (K. pneumoniae 503-964) [µg/mL]	MIC (P. aeruginosa Stone 130) [µg/mL]	MIC (S. pneumoniae 6301) [µg/mL]	MIC (S. pneumoniae 6302) [µg/mL]	MIC (P. aeruginosa 5700) [µg/mL]	also measured
CC1(C)S[C@@H]2[C@H](N=CN3CCC(CCCn4ccnc4)CC3)C(=O)N2[C@H]1C(=O)O [C, [2S-(2alpha,5alpha,6beta)]-6-[[4-[3-(1H-imidazol-1-yl)propyl]-1-piperidinyl]methylene]amino]-3,3-dimethyl-7-oxo-4-thia-1-azabicyclo[3.2.0]heptane-2-carboxylic acid 1.2 mole hydrochloride monohydrate]	128	8	> 128	> 128	> 128	128	8	8	8	16	8	> 128	> 128	2	> 128	8	> 128	128	128	16	MIC (C. diversus CDC 1663-72; [6]): 4 µg/mL; MIC (E. coli R-563; [7]): 4 µg/mL
CC1(C)S[C@@H]2[C@H](N=CN3CCC(Cn4ccnc4CN)CC3)C(=O)N2[C@H]1C(=O)O [J, [2S-(2alpha,5alpha,6beta)]-6-[[[4-[[2-(aminomethyl)-1H-imidazol-1-yl]methyl]-1-piperidinyl]methylene]amino]-3,3-dimethyl-7-oxo-4-thia-1-azabicyclo[3.2.0]heptane-2-carboxylic acid hydrochloride]	0.5	0.25	128	128	> 128	1	0.125	0.062	8	64	0.5	16	16	8	64	0.25	> 128	1	4	0.5	MIC (C. diversus CDC 1663-72; [6]): 0.031 µg/mL; MIC (E. coli R-563; [7]): 0.125 µg/mL
CC1(C)S[C@@H]2[C@H](N=CN3CCC(c4ncc[nH]4)CC3)C(=O)N2[C@H]1C(=O)O [O, [2S-(2alpha,5alpha,6beta)]-6-[[[4-(1H-imidazol-2-yl-1-piperidinyl]methylene]amino]-3,3-dimethyl-7-oxo-4-thia-1-azabicyclo[3.2.0]heptane-2-carboxylic acid hydrochloride trihydrate]	0.5	0.5	32	32	> 128	1			0.125		1	16	16		128	0.5	> 128	1	1	0.5	MIC (E. coli 387-1; Escherichia coli, 3871): 0.125 µg/mL; MIC (E. coli 4; Escherichia coli, 4): 0.125 µg/mL; MIC (C. freundii CDC6; CDC6): 0.125 µg/mL; MIC (E. coli 48; Escherichia coli, 48): 0.125 µg/mL; MIC (P. aeruginosa 503-56; P. aeruginosa 503-56, hydrochloride trihydrate): > 128 µg/mL; MIC (C. diversus CDC 1663-72): 0.125 µg/mL; MIC (E. coli R-563; R563): 0.125 µg/mL
Cc1nc(C)n(CCCC2CCN(C=N[C@@H]3C(=O)N4[C@@H]3SC(C)(C)[C@@H]4C(=O)O)CC2)c1C [E, [2S-(2alpha,5alpha,6beta)]-6[[4-[3-[(2,4,5-trimethyl-1H-imidazol-1-yl)propyl]-1-piperidinyl]methylene]amino]-3,3-dimethyl-7-oxo-4-thia-1-azabicyclo[3.2.0]heptane-2-carboxylic acid hydrate hydrochloride]	1	> 128	128	128	> 128	2	4	4	0.062	0.125	0.125	8	8	0.062	> 128	0.062	> 128	1	1	> 128	MIC (C. diversus CDC 1663-72; [6]): 0.062 µg/mL; MIC (E. coli R-563; [7]): 4 µg/mL
